Source: US20230416248A1, “COMPOUNDS AND USES THEREOF” (Foghorn Therapeutics Inc., priority 2020, published 2023)

What was measured:
BRM = biological target: T1, BRM (Homo sapiens, UniProt P51531); experiment: ATPase catalytic activity of BRM, ADP-Glo in vitro biochemical assay; details: for IC50: ADP-Glo ATPase assay, 30 nM BRM, 400 μM ATP; for Ratio*: ratio BRG1 IC50 / BRM IC50
T1 construct: made in house; host or cells: High Five insect cells
How it was run: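 ADP-Glo luminescence, after depletion of leftover ATP and conversion of ADP, reported the activity. The 1 h room-temperature reaction held 400 μM ATP, 20 nM salmon sperm DNA and 30 nM BRM in 20 mM Tris pH 8, 20 mM MgCl2, 50 mM NaCl, 0.1% Tween-20, 1 mM DTT.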

BRG-1 = biological target: T2, BRG-1 (Homo sapiens, UniProt P51532); experiment: ATPase catalytic activity of BRG-1, ADP-Glo in vitro biochemical assay; details: ADP-Glo ATPase assay, 30 nM BRG-1, 400 μM ATP; read-out: BRG1 IC50
T2 construct: made in house; host or cells: High Five insect cells
T2 sequence (P51532 whole entry): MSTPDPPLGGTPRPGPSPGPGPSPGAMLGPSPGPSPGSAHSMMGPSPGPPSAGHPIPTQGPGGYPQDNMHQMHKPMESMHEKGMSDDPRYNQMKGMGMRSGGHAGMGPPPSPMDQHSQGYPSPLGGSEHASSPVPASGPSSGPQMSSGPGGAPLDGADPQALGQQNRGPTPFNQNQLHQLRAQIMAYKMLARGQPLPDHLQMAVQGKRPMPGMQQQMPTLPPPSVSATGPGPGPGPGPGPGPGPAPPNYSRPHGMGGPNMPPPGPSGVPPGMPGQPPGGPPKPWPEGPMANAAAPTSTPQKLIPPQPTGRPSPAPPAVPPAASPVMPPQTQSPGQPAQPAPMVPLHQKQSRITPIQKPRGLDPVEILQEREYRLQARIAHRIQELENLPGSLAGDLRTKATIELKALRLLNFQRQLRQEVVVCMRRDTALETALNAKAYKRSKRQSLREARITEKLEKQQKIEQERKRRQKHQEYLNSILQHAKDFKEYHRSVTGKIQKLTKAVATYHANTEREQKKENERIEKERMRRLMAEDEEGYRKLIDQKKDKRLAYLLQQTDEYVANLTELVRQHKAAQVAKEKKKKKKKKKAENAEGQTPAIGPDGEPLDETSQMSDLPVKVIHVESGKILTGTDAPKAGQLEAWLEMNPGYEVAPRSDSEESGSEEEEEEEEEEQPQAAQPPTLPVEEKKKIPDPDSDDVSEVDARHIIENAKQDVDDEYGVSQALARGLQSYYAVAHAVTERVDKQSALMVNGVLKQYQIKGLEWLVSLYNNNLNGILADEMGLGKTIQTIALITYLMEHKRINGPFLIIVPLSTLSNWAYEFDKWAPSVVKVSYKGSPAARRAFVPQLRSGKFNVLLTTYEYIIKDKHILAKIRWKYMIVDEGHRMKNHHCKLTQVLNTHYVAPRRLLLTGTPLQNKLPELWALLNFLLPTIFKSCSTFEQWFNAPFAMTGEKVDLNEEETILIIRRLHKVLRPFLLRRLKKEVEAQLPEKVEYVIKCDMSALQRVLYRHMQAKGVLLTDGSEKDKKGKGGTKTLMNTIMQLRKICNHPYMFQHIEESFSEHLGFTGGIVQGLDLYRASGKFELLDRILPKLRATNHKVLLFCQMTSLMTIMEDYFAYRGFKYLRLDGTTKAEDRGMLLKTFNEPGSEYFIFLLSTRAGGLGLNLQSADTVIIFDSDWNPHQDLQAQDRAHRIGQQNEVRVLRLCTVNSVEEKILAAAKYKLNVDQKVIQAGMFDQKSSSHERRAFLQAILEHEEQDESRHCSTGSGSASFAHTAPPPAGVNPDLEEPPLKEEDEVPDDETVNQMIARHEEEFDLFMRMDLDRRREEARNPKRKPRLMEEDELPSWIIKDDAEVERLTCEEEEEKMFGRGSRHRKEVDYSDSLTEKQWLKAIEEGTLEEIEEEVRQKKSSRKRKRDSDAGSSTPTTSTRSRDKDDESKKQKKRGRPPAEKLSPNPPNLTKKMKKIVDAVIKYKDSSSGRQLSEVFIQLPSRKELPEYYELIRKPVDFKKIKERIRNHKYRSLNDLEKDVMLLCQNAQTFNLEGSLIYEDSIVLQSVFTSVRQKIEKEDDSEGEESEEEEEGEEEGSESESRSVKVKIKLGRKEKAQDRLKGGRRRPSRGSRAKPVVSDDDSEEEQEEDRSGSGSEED
How it was run: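 ADP produced by BRG-1 was quantified by luciferase luminescence. A 60 min room-temperature ADP-to-ATP conversion followed a 40 min ATP-depletion step.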

T1 sequence (P51531 whole entry): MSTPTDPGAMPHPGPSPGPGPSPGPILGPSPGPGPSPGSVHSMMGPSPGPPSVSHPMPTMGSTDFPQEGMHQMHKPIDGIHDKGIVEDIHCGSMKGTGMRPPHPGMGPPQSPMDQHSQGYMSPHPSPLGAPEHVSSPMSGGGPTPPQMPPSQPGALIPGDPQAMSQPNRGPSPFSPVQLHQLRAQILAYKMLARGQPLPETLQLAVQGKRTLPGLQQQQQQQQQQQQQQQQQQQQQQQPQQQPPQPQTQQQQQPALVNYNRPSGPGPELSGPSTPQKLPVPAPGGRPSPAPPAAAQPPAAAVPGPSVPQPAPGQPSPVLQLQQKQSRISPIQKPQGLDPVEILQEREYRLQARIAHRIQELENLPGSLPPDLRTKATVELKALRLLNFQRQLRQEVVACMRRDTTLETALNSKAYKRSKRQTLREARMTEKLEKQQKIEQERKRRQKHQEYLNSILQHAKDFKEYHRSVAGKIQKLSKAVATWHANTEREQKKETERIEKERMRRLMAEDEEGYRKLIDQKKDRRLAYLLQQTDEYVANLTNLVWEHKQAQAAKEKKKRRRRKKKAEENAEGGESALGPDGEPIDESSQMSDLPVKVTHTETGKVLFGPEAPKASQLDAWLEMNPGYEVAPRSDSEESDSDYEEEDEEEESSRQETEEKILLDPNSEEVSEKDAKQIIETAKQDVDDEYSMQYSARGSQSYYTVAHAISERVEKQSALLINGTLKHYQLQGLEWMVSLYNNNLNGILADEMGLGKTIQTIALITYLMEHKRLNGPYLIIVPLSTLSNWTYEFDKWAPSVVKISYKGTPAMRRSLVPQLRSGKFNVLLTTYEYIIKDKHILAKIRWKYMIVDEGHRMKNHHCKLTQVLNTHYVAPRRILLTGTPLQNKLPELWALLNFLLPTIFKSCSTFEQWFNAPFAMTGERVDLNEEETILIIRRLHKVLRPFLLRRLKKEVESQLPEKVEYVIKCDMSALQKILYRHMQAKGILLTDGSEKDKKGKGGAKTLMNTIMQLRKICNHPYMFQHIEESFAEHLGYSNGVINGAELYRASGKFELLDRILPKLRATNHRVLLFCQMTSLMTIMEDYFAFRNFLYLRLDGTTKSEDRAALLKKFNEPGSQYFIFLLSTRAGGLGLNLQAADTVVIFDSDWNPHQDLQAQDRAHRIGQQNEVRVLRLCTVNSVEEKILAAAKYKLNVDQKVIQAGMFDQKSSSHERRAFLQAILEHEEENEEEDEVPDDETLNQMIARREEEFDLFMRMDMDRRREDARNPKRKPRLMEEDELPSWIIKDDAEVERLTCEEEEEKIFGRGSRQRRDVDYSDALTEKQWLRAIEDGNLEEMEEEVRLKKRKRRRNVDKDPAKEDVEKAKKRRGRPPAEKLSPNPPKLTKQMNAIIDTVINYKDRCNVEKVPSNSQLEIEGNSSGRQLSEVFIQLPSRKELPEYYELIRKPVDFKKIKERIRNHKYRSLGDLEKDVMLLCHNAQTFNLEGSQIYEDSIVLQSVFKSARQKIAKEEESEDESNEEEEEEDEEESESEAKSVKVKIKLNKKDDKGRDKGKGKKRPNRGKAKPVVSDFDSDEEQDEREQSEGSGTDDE

Row | IC50 (BRM) [nM] | Ratio* (BRM) | IC50 (BRG-1) [nM] | SMILES
1 | 12 | 14.44 | 174 | COc1ccc2c(c1F)N(c1ccc3cnc(CNC(=O)c4ccc5c(c4)S(=O)(=O)CCOC5)cc3n1)CCO2 [Compound 774]
2 | 12.5 | 12.13 | 152 | O=C(NCc1cc2nc(N3CCOc4cc(C5CC5)ccc43)ccc2nn1)c1ccc2c(c1)S(=O)(=O)CCOC2 [Compound 775]
3 | 6.3 | 15.77 | 100 | COc1ccc2c(c1)N(c1ccc3cnc(CNC(=O)c4ccc5c(c4)S(=O)(=O)CCOC5)cc3n1)CCO2 [Compound 776]
4 | 74 | 13.26 | 981 | O=C(NCc1cc2nc(N3CCOc4cc(C(F)F)ncc43)ccc2cn1)c1ccc2c(c1)S(=O)(=O)CCOC2 [Compound 777]
5 | 5.5 | 2.13 | 11.7 | C[C@@H]1CN(c2cccc(-c3ccc4cnc(CNC(=O)c5ccc6c(c5)S(=O)(=O)CCC(F)C6)cc4n3)n2)C[C@H](C)O1 (stereo partly drawn) [Compound 779]
6 | 29 | 17.78 | 515 | O=C(NCc1cc2nc(N3CCCc4cnc(C5CC5)nc43)ccc2cn1)c1ccc2c(c1)S(=O)(=O)CCOC2 [Compound 780]
7 | 27.9 | 25.53 | 713 | O=C(NCc1cc2nc(N3CCOc4cc(F)c(C(F)F)nc43)ccc2cn1)c1ccc2c(c1)S(=O)(=O)CCOC2 [Compound 781]
8 | 8.7 | 4.99 | 43.5 | CN(c1cnc2c(c1)OCCN2c1ccc2cnc(CNC(=O)c3ccc4c(c3)S(=O)(=O)CCOC4)cc2n1)C1CC1 [Compound 782]
9 | 31.1 | 14.27 | 444 | COc1ncc2c(c1F)N(c1ccc3cnc(CNC(=O)c4ccc5c(c4)S(=O)(=O)CCOC5)cc3n1)CCC2 [Compound 783]
10 | 24.6 | 8.62 | 212 | Cc1c(C2CC2)cnc2c1OCCN2c1ccc2cnc(CNC(=O)c3ccc4c(c3)S(=O)(=O)CCOC4)cc2n1 [Compound 784]
11 | 85.8 | 15.49 | 1330 | O=C(NCc1cc2nc(N3CCCc4ncc(C5CC5)nc43)ccc2cn1)c1ccc2c(c1)S(=O)(=O)CCOC2 [Compound 785]
12 | 13.5 | 14.38 | 194 | O=C(NCc1cc2cc(N3CCOc4ccc(C5CC5)cc43)ccc2cn1)c1ccc2c(c1)S(=O)(=O)CCOC2 [Compound 787]
13 | 620 | 6.69 | 4150 | O=C(NCc1cc2nc(-c3ccc4c(n3)CN(C3CC3)CC4)ccc2cn1)c1ccc2c(c1)S(=O)(=O)CCOC2 [Compound 788]
14 | 5.9 | 5.10 | 30.3 | O=C(NCc1cc2cc(N3CCCc4cc(-c5cn[nH]c5)ccc43)ccc2cn1)c1ccc2c(c1)S(=O)(=O)CCOC2 [Compound 789]
15 | 12.2 | 5.03 | 61.4 | CN(C)c1cnc2c(c1)OCCN2c1ccc2cnc(CNC(=O)c3ccc4c(c3)S(=O)(=O)CCOC4)cc2c1 [Compound 790]
16 | 13.7 | 9.88 | 135 | O=C(NCc1cc2nc(N3CCCc4cc5c(cc43)OCO5)ccc2cn1)c1ccc2c(c1)S(=O)(=O)CCOC2 [Compound 792]
17 | 11.8 | 11.88 | 140 | O=C(NCc1cc2nc(N3CCCc4cc5c(cc43)OCCO5)ccc2cn1)c1ccc2c(c1)S(=O)(=O)CCOC2 [Compound 793]
18 | 6.6 | 4.60 | 30.4 | COCc1cc2c(c(F)c1Cl)N(c1ccc3cnc(CNC(=O)c4ccc5c(c4)S(=O)(=O)CCOC5)cc3n1)CCO2 [Compound 794]

Row | IC50 (BRM) [nM] | Ratio* (BRM) | IC50 (BRG-1) [nM] | SMILES
19 | 122 | 33.67 | 4110 | O=C(NCc1cc2nc(N3CCOc4ccc(C5(F)CC5(F)F)nc43)ccc2cn1)c1ccc2c(c1)S(=O)(=O)CCOC2 (stereo not drawn) [Compound 795]
20 | 20.8 | 13.06 | 272 | COCc1cc(F)c2c(c1)OCCN2c1ccc2cnc(CNC(=O)c3ccc4c(c3)S(=O)(=O)CCOC4)cc2n1 [Compound 796]
21 | 18.8 | 10.11 | 190 | O=C(NCc1cc2nc(-c3cccc(N4CC(C5(F)COC5)C4)n3)ccc2cn1)c1ccc2c(c1)S(=O)(=O)CCOC2 [Compound 797]
22 | 7.4 | 5.90 | 43.8 | O=C(NCc1cc2cc(N3CCOc4cc(N5CCOCC5)cnc43)ccc2cn1)c1ccc2c(c1)S(=O)(=O)CCOC2 [Compound 798]
23 | 25.5 | 26.04 | 663 | O=C(NCc1cc2cc(N3CCOc4ccc(C(F)F)nc43)ccc2cn1)c1ccc2c(c1)S(=O)(=O)CCOC2 [Compound 799]
24 | 169 | 3.77 | 636 | O=C(NCc1ncc2ccc(N3CCOc4cc(C5CC5)cnc43)cc2n1)c1ccc2c(c1)S(=O)(=O)CCOC2 [Compound 800]
25 | 111 | 13.00 | 1440 | O=C(NCc1cc2cc(N3CCOc4cc(C5CC5)cnc43)cnc2cn1)c1ccc2c(c1)S(=O)(=O)CCOC2 [Compound 801]
26 | 8.1 | 8.31 | 67.1 | COc1c(F)cnc2c1CCCN2c1ccc2cnc(CNC(=O)c3ccc4c(c3)S(=O)(=O)CCOC4)cc2n1 [Compound 802]
27 | 8.1 | 12.88 | 105 | CN(C)c1cc2c(cn1)N(c1ccc3cnc(CNC(=O)c4ccc5c(c4)S(=O)(=O)CCOC5)cc3n1)CCO2 [Compound 803]
28 | 15.8 | 40.93 | 646 | O=C(NCc1cc2nc(N3CCOc4c(F)cc(C5CC5)nc43)ccc2cn1)c1ccc2c(c1)S(=O)(=O)CCOC2 [Compound 804]
29 | 26.2 | 11.56 | 303 | O=C(NCc1cc2nc(N3CCOc4cc(C5CC5)c(F)c(F)c43)ccc2cn1)c1ccc2c(c1)S(=O)(=O)CCOC2 [Compound 805]
30 | 92.3 | 8.67 | 801 | COc1nn(C(F)F)cc1-c1ccc2cnc(CNC(=O)c3ccc4c(c3)S(=O)(=O)CCOC4)cc2n1 [Compound 806]
31 | 19.1 | 25.47 | 486 | [2H]C1([2H])OC([2H])([2H])C([2H])([2H])S(=O)(=O)c2cc(C(=O)NCc3cc4nc(N5CCOc6ccc(C(F)F)nc65)ccc4cn3)ccc21 [Compound 807]
32 | 84 | 12.50 | 1050 | COc1ncccc1-c1ccc2cnc(CNC(=O)c3ccc4c(c3)S(=O)(=O)CCOC4)cc2n1 [Compound 808]
33 | 6.9 | 39.28 | 269 | C[C@@H]1C[C@H]1c1ccc2c(n1)N(c1ccc3cnc(CNC(=O)c4ccc5c(c4)S(=O)(=O)CCOC5)cc3n1)CCO2 [Compound 809]
34 | 8.3 | 22.29 | 185 | C[C@H]1C[C@@H]1c1ccc2c(n1)N(c1ccc3cnc(CNC(=O)c4ccc5c(c4)S(=O)(=O)CCOC5)cc3n1)CCO2 [Compound 810]
35 | 45.8 | 14.46 | 662 | Cn1cc(-c2ccc3cnc(CNC(=O)c4ccc5c(c4)S(=O)(=O)CCOC5)cc3n2)c(OC(F)F)n1 [Compound 812]
